Assay: recombinant barcode read abundance after kanamycin selection (control-corrected) (log10(CPM+1)); higher = more efficient recombination; sequences stand for … in AGTGCAGAGAAAATCGGCCAGTTTTCTCTGCCTGCAGTCCGCATGCCGT…ATTTATGCAGCGGACTGCCTTTCTCCCAAAGTGATAAACCGGACAGTATCATGGACCGGTTTTCCCGGTAATCCGTATTTGCAAGGTTGGTTTCACT; site = the 11-nt target
Method in brief: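 In E. coli, a pooled library matched targets to IS621 bridge RNA target-binding loops and was introduced alongside a donor plasmid. Cells went onto chloramphenicol/ampicillin/kanamycin with 0.1 mM IPTG or onto chloramphenicol/ampicillin LB agar as control, in duplicate. Recombination efficiency, from recombinant-junction barcodes as counts per million, is averaged and control-corrected. It is reported as log10(CPM+1).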

| Sequence | recombinant barcode read abundance (log10) |
| --- | --- |
| GAGCCCAAATGGGTTCTAACCTGTTGCCTAG [GAGCCCACTAG_LTGcore_AA_RTGcore_CT] (site GAGCCCACTAG) (LTG core: AA, RTG core: CT) | 0.0475 |
| GAGCCCACTTGGGTTCTAACCTGTTGCCTCA [GAGCCCACTAG_LTGcore_CT_RTGcore_TG] (site GAGCCCACTAG) (LTG core: CT, RTG core: TG) | 0.593 |
| GAGCCCACTTGGGTTCTAACCTGTTGCCTCG [GAGCCCACTAG_LTGcore_CT_RTGcore_CG] (site GAGCCCACTAG) (LTG core: CT, RTG core: CG) | 0.1 |
| GAGCCCACTTGGGTTCTAACCTGTTGCCTTA [GAGCCCACTAG_LTGcore_CT_RTGcore_TA] (site GAGCCCACTAG) (LTG core: CT, RTG core: TA) | 0.296 |
| GAGCCCAGATGGGTTCTAACCTGTTGCCTAG [GAGCCCACTAG_LTGcore_GA_RTGcore_CT] (site GAGCCCACTAG) (LTG core: GA, RTG core: CT) | 0.163 |
| GAGCCCAGATGGGTTCTAACCTGTTGCCTTC [GAGCCCACTAG_LTGcore_GA_RTGcore_GA] (site GAGCCCACTAG) (LTG core: GA, RTG core: GA) | 0.057 |
| GAGCCCATATGGGTTCTAACCTGTTGCCTAG [GAGCCCACTAG_LTGcore_TA_RTGcore_CT] (site GAGCCCACTAG) (LTG core: TA, RTG core: CT) | 0.101 |
| GAGCCCATGTGGGTTCTAACCTGTTGCCTAG [GAGCCCACTAG_LTGcore_TG_RTGcore_CT] (site GAGCCCACTAG) (LTG core: TG, RTG core: CT) | 0.0858 |
| GAGCCCATTTGGGTTCTAACCTGTTGCCTAG [GAGCCCACTAG_LTGcore_TT_RTGcore_CT] (site GAGCCCACTAG) (LTG core: TT, RTG core: CT) | 0.0489 |
| GAGGCCTAATGGGTTCTAACCTGTTGCCAAG [GAGGCCTCTTG_LTGcore_AA_RTGcore_CT] (site GAGGCCTCTTG) (LTG core: AA, RTG core: CT) | 0.153 |
| GAGGCCTAGTGGGTTCTAACCTGTTGCCAAG [GAGGCCTCTTG_LTGcore_AG_RTGcore_CT] (site GAGGCCTCTTG) (LTG core: AG, RTG core: CT) | 0.106 |
| GAGGCCTAGTGGGTTCTAACCTGTTGCCACT [GAGGCCTCTTG_LTGcore_AG_RTGcore_AG] (site GAGGCCTCTTG) (LTG core: AG, RTG core: AG) | 0.159 |
| GAGGCCTCGTGGGTTCTAACCTGTTGCCAAG [GAGGCCTCTTG_LTGcore_CG_RTGcore_CT] (site GAGGCCTCTTG) (LTG core: CG, RTG core: CT) | 0.218 |
| GAGGCCTCTTGGGTTCTAACCTGTTGCCAAG [GAGGCCTCTTG_LTGcore_CT_RTGcore_CT] (site GAGGCCTCTTG) (LTG core: CT, RTG core: CT) | 1.82 |
| GAGGCCTCTTGGGTTCTAACCTGTTGCCACA [GAGGCCTCTTG_LTGcore_CT_RTGcore_TG] (site GAGGCCTCTTG) (LTG core: CT, RTG core: TG) | 0.453 |
| GAGGCCTCTTGGGTTCTAACCTGTTGCCACT [GAGGCCTCTTG_LTGcore_CT_RTGcore_AG] (site GAGGCCTCTTG) (LTG core: CT, RTG core: AG) | 0.379 |
| GAGGCCTCTTGGGTTCTAACCTGTTGCCAGG [GAGGCCTCTTG_LTGcore_CT_RTGcore_CC] (site GAGGCCTCTTG) (LTG core: CT, RTG core: CC) | 0.236 |
| GAGGCCTCTTGGGTTCTAACCTGTTGCCAGT [GAGGCCTCTTG_LTGcore_CT_RTGcore_AC] (site GAGGCCTCTTG) (LTG core: CT, RTG core: AC) | 0.0794 |

Source: the supplement of paper PMC11208160
